The text below walks through data of patent US6900220B2, “Quinazolone derivatives as alpha 1A/B adrenergic receptor antagonists” (Syntex (U.S.A.) LLC, priority 2001, dated 2005).

Where a name gives a salt, the structure may show the parent alone.

In one data set the test system is anesthetized dog. The experiment in a line: Dog in vivo blood and intraurethral pressure assay. The note with it: anesthetized mongrel dogs, i.v. bolus, increasing doses. As to the method: The following describes an in vivo assay for measuring the relative effect of test compounds on hypogastric nerve stimulation-induced increases in intraurethral pressure and phenylephrine-induced increases in diastolic blood pressure in anesthetized dog.
Mongrel dogs (10 to 20 kg) were fasted for 12 to 18 hours and anesthetized with […] (35 mg/kg, i.v.). An endotracheal tube was inserted and thereafter the lungs were mechanically ventilated with room air. The right femoral vein was isolated and cannulated with two polyethylene cannulae, one for the administration of a continuous infusion of phenobarbital sodium (5 to 10 mg/kg/hr) and the other for bolus administration of test substances. The right femoral artery was isolated and cannulated to the abdominal aorta with a fluid filled polyethylene cannula connected to an external pressure transducer for monitoring diastolic aortic pressure (DAP). The bladder was exposed via a ventral midline abdominal incision and emptied of urine through a 22 gauge needle. The bladder was cannulated through a stab incision with a water filled balloon catheter connected to an external pressure transducer for monitoring prostatic intraurethral pressure (IUP). The right hypogastric nerve (HGN) was carefully isolated and attached to a Dastre's electrode for nerve stimulation. […]
For `COc1cc2nc(N3CCN(C(=O)c4ccco4)CC3)nc(N)c2cc1OC` [prazosin], the “inhibition of hypogastric nerve (HGN) stimulation-induced increases in intraurethral pressure (IUP) relative to phenylephrine-induced increases in diastolic aortic pressure (DAP)” value is “inhibited increases in IUP and DAP in similar fashion”.

Test system in the next data set: not given
Assay: not given
Details: not given
What is called melting point is the temperature, or range, at which the solid turns liquid. The compound `COc1cc2nc(N3CCc4c(CN5CCOCC5)cccc4C3)[nH]c(=O)c2cc1OC` (as salt: hydrochloric acid salt) [Compound 701, 6,7-Dimethoxy-2-(5-morpholin-4-ylmethyl-3,4-dihydro-1H-isoquinolin-2-yl)-3H-quinazolin-4-one] returned a melting point of 227.9 to 229.6 °C.

In turn, `COc1cc2nc(N3CCc4c(cccc4C(=N)N4CCOCC4)C3)[nH]c(=O)c2cc1OC` (as salt: hydrochloric acid salt) [Compound 901, 2-[5-(imino-morpholin-4-yl-methyl)-3,4-dihydro-1H-isoquinolin-2-yl]-6,7-dimethoxy-3H-quinazolin-4-one] showed a melting point of 249 to 251 °C. For `COc1cc2nc(N3CCc4c(cccc4-c4cnccc4N)C3)[nH]c(=O)c2cc1OC` (as salt: hydrochloric acid salt) [Compound 902, 2-[5-(4-amino-pyridin-3-yl)-3,4-dihydro-1H-isoquinolin-2-yl]-6,7-dimethoxy-3H-quinazol-4-one], the melting point was above 300 °C. Same read-out and setting: the figure for `COc1cc2c(cc1OC)CN(c1nc(=O)c3cc(OC)c(OC)cc3[nH]1)CC2` [Compound 105, 2-(6,7-dimethoxy-3,4-dihydro-1H-isoquinolin-2-yl)-6,7-dimethoxy-1H-quinazolin-4-one] is 188.6 to 190.4 °C; for `COc1cc2nc(N3CCc4c(ncnc4N4CCOCC4)C3)[nH]c(=O)c2cc1OC` [Compound 201, 6,7-dimethoxy-2-(4-morpholin-4-yl-5,8-dihydro-6H-pyrido[3,4-d]pyrimidin-7-yl)-3H-quinazolin-4-one] it is 287.7 to 290.4 °C.

For `COc1cc2nc(N3CCn4c(cnc4NC4CCCCC4)C3)[nH]c(=O)c2cc1OC` [Compound 301, 2-(3-cyclohexylamino-5,6-dihydro-8H-imidazo[1,5-a]pyrazin-7-yl)-6,7-dimethoxy-1H-quinazolin-4-one], the melting point is 248 to 249.4 °C.

The compound `COc1cc2nc(N3CCc4c(cccc4S(=O)(=O)N4CCN(C)CC4)C3)[nH]c(=O)c2cc1OC` [Compound 401, 6,7-dimethoxy-2-[5-(4-methyl-piperazine-1-sulfonyl)-3,4-dihydro-1H-isoquinolin-2-yl]-3H-quinazolin-4-one] gave a melting point of 230 to 237 °C.

`COc1cc2[nH]c(N3CCn4c(-c5ccccc5)cnc4C3)nc(=O)c2cc1OC` [Compound 904, 6,7-dimethoxy-2-(3-phenyl-5,6-dihydro-8H-imidazo[1,2-α]pyrazin-7-yl)-1H-quinazolin-4-one] showed a melting point above 300 °C.
